Source: patent US11512087B2, “BRK inhibitory compound” (priority 2015, dated 2022)

Experiments:
Lck = Lck (Homo sapiens (Human), UniProt P06239); test: Lck inhibitory activity (Z'-LYTE Kinase Assay Kit-Tyr 2 Peptide, FRET); format: biochemical
Method: The Lck activity was determined by using Fluorescence Resonance Energy Transfer (FRET) method.
A dilute solution (5 μL) of the compound of the present invention in dimethylsulfoxide (DMSO; Sigma-Aldrich Co. LLC) was added to a 96-well assay plate. In addition, Peptide/Kinase Buffer composed of DL-dithiothreitol (DTT; 2 mM), Tyr 2 Peptide (2 μM), Kinase Buffer and Lck was added to the assay plate, and the reaction solution was preincubated at 25° C. for 20 minutes. […] After incubation, Coloring Solution A (10 μL) composed of Coloring Reagent B and Coloring Buffer was added, and the reaction solution was incubated at 25° C. for 1 hour. Stop Reagent (10 μL) was added to each well such that the enzymatic reaction stopped. The fluorescent coloring of each well was measured on a fluorescent plate reader by using wavelengths of 445 nm and 520 nm. The ratio of phosphorylation was determined by a ratio of coloring at 445 nm to that at 520 nm according to the attached manual.
The inhibition rate (%) of the compound of the present invention was calculated according to the following Numerical Formula 2. Inhibition rate (%)={1−(AX−AB)/(AC−AB)}×100 [Numerical Formula 2]
AX: Ratio of phosphorylation at addition of the compound of the present invention
AB: Ratio of phosphorylation in blank
AC: Ratio of phosphorylation at addition of only DMSO

Syk kinase = Syk kinase (Homo sapiens (Human), UniProt P43405); test: Syk inhibitory activity (mobility shift, QuickScout Screening Assist MSA); format: biochemical; settings: read-out: Syk inhibitory activity (Inhibition rate at 1 μM of compound)
Method: The compound of the present invention was dissolved in DMSO to prepare a solution with a concentration of 100 times the test concentration of 1 μmol/L. The solution was further diluted 25-fold with Assay Buffer (20 mmol/L HEPES, 0.01% Triton X-100, 2 mmol/L DTT, pH 7.5) to give a test substance solution. With regard to a positive control substance (Staurosporine), a solution of the positive control substance was prepared in a similar manner.
Five microliters of a test substance solution with a concentration of four times prepared by using Assay Buffer, 5 μL of a solution of a substrate (Blk/Lyntide)/ATP/a metal (Mg) with a concentration of four times and 10 μL of a solution of Syk kinase with a concentration of two times were mixed in a well of a 384-well plate made of polypropylene, and the mixture was subjected to a reaction at room temperature for 1 hour (the final concentration of the substrate was 1,000 nmol/L, and the final concentration of ATP was 26 μmol/L). To the mixture, 60 μL of Termination Buffer (QuickScout Screening Assist MSA; Carna Biosciences, Inc.) was added to stop the reaction. The substrate peptide and the phosphorylated peptide in the reaction solution were separated, and were quantified. The kinase reaction was evaluated by a product ratio (P/(P+S)) calculated from a peak height (S) of the substrate peptide and a peak height (P) of the phosphorylated peptide.

Sequence of Lck (P06239 whole entry, species assumed): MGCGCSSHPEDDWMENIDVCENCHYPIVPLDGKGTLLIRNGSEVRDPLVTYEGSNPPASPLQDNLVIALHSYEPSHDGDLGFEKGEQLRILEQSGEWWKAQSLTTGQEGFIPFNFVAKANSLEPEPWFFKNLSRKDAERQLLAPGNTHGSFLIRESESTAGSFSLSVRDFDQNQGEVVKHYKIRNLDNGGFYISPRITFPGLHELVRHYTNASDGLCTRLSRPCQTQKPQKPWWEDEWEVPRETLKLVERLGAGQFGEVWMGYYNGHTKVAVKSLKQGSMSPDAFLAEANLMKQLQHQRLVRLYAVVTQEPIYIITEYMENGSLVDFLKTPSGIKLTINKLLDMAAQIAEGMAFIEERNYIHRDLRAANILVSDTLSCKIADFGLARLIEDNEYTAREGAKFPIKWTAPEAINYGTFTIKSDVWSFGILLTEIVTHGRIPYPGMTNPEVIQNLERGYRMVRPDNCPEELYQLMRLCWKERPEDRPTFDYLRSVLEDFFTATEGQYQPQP

Row | IC50 (Lck) [µM] | inhibition at 1 µM (Syk kinase) [%] | Compound
1 | > 10 | 0 | Cc1nn(C)cc1Nc1nc(N)c2c(-c3ccc4[nH]ccc4c3)nn(C(C)C)c2n1 [Example 1, N^6-(1,3-dimethyl-1H-pyrazol-4-yl)-3-(1H-indol-5-yl)-1-isopropyl-1H-pyrazolo[3,4-d]pyrimidine-4,6-diamine]
2 | 2.5 | 0 | CC(C)n1nc(-c2ccc(F)c3[nH]ncc23)c2c(N)nc(Nc3ccc(S(C)(=O)=O)cc3F)nc21 [Example 4-3, 3-(7-Fluoro-1H-indazol-4-yl)-N^6-[2-fluoro-4-(methylsulfonyl)phenyl]-1-isopropyl-1H-pyrazolo[3,4-d]pyrimidine-4,6-diamine]
3 | > 10 | 0 | CC(C)n1cc(-c2ccc(C#N)c3[nH]ncc23)c2c(N)nc(Nc3ccc(S(C)(=O)=O)cc3F)nc21 [Example 13-1, 4-(4-Amino-2-{[2-fluoro-4-(methylsulfonyl)phenyl]amino}-7-isopropyl-7H-pyrrolo[2,3-d]pyrimidin-5-yl)-1H-indazole-7-carbonitrile]
